# Counter-ions that a name gives are not always drawn.
# Target: T1, human EP3 receptor (Homo sapiens, UniProt P43115)
# T1 construct: expressed in transfected cells; host or cells: CHO K1 (Chinese Hamster Ovary), stably co-transfected with Galpha16 and mitochondrial clytin
# T1 sequence (P43115 1-390): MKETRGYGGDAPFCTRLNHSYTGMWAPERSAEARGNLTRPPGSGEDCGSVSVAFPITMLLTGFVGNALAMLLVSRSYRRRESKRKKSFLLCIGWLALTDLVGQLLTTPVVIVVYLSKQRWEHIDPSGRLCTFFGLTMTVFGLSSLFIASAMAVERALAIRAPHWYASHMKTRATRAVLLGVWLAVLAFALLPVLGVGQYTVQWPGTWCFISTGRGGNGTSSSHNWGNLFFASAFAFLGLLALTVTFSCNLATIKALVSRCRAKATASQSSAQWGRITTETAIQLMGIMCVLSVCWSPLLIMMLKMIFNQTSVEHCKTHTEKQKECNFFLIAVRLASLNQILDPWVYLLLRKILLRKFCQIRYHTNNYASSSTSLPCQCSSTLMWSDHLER
# Test: Cellular in vitro assay for determining EP3 receptor activity (human EP3 cell line, sulprostone-stimulated calcium luminescence)
# Format: cell-based
# Conditions: CHO cells expressing human EP3 and mitochondrial Clytin; antagonist mode, sulprostone at EC50; read-out: EP3 CHO mtCLY ANTAG IC50
# In short: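 Antagonist activity was measured as inhibition of the luminescent calcium signal elicited by EC50 sulprostone, following 10 min compound pretreatment. The cell line was recombinant CHO K1 co-expressing human EP3, Gα16 and the photoprotein Clytin, reconstituted with coelenterazine.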
row,SMILES,IC50
1,"COc1ccc(C(C)NC(=O)c2cc3c(=O)[nH]c(-c4ccc5ccccc5n4)cn3n2)cn1 (centres unmarked) [Example 1-106, N-[1-(6-Methoxypyridin-3-yl)ethyl]-4-oxo-6-(quinolin-2-yl)-4,5-dihydropyrazolo[1,5-a]pyrazine-2-carboxamide]",5.65 nM
2,"Cc1cccc2ncc(-c3cn4nc(C(=O)NC(C)c5ccccc5OC(F)F)c(C(C)C)c4c(=O)[nH]3)cc12 (centres unmarked) [Example 4-46, N-{1-[2-(Difluoromethoxy)phenyl]ethyl}-3-isopropyl-6-(5-methylquinolin-3-yl)-4-oxo-4,5-dihydropyrazolo[1,5-a]pyrazine-2-carboxamide]",1.05 nM
3,"CC(NC(=O)c1cc2c(=O)[nH]c(-c3ccc4ccccc4c3)cn2n1)c1ccc(O)cc1 (centres unmarked) [Example 1-136, N-[1-(4-Hydroxphenyl)ethyl]-6-(2-naphthyl)-4-oxo-5H-pyrazolo[1,5-a]pyrazine-2-carboxamide]",5.8 nM
4,"Cc1ccc(-c2cn3nc(C(=O)NC4(c5ccc(F)cc5)CN(C)C4)c(C(F)(F)F)c3c(=O)[nH]2)cc1Cl [Example 1-153, 6-(3-Chloro-4-methylphenyl)-N-[3-(4-fluorophenyl)-1-methylazetidin-3-yl]-4-oxo-3-(trifluoromethyl)-4,5-dihydropyrazolo[1,5-a]pyrazine-2-carboxamide]",5.4 nM
5,"CCc1ccc(C(C)NC(=O)c2cc3c(=O)[nH]c(-c4ccc5ccccc5c4)cn3n2)cc1 (centres unmarked) [Example 2-39, N-[1-(4-Ethylphenyl)ethyl]-6-(2-naphthyl)-4-oxo-4,5-dihydropyrazolo[1,5-a]pyrazine-2-carboxamide]",3.7 nM
6,"CCC(CNC(=O)c1cc2c(=O)[nH]c(-c3ccc4ccccc4c3)cn2n1)n1cc(Cl)cn1 (centres unmarked) [Example 2-10, N-[2-(4-Chlor-1H-pyrazol-1-yl)butyl]-6-(2-naphthyl)-4-oxo-4,5-dihydropyrazolo[1,5-a]pyrazine-2-carboxamide]",1.7 nM
7,"CC(C)c1c(C(=O)N[C@@H](C)c2ccc(F)cc2)nn2cc(-c3ccc4ccccc4c3)[nH]c(=O)c12 [Example 1-9, N-[(1S)-1-(4-Fluorophenyl)ethyl]-6-(naphthalen-2-yl)-4-oxo-3-(propan-2-yl)-4,5-dihydropyrazolo-[1,5-a]pyrazine-2-carboxamide]",2.37 nM
8,"Cc1c(C(=O)N[C@H]2c3ccccc3C[C@H]2O)nn2c(C)c(-c3ccc4ccccc4c3)[nH]c(=O)c12 [Example 3-67, N-[(7S,2R)-2-Hydroxy-2,3-dihydro-1H-inden-1-yl]-3,7-dimethyl-6-(naphthalen-2-yl)-4-oxo-4,5-dihydropyrazolo[1,5-a]pyrazine-2-carboxamide]",2.05 nM
9,"O=C(NCCc1cccc(F)c1)c1cc2c(=O)[nH]c(-c3ccc4ccccc4c3)cn2n1 [Example 2-52, N-[2-(3-Fluorophenyl)ethyl]-6-(2-naphthyl)-4-oxo-4,5-dihydropyrazolo[1,5-a]pyrazine-2-carboxamide]",4.4 nM
10,"Cc1cccc2ncc(-c3cn4nc(C(=O)NC(C)(C)c5cc(Cl)cc(Cl)c5)c(C(C)C)c4c(=O)[nH]3)cc12 [Example 4-8, N-[2-(3,5-Dichlorophenyl)propan-2-yl]-6-(5-methylquinolin-3-yl)-4-oxo-3-(propan-2-yl)-4,5-dihydropyrazolo[1,5-a]pyrazine-2-carboxamide]",4.3 nM
11,"COc1ccc(C(C)NC(=O)c2nn3c(C)c(-c4ccc5ccccc5c4)[nH]c(=O)c3c2C)cc1 (centres unmarked) [Example 3-57, N-[1-(4-Methoxyphenyl)ethyl]-3,7-dimethyl-6-(2-naphthyl)-4-oxo-5H-pyrazolo[1,5-a]pyrazine-2-carboxamide]",2.95 nM
12,"Cc1cccc2ncc(-c3cn4nc(C(=O)N[C@@H](c5ccc(F)cc5)C(C)(C)O)c(C(C)C)c4c(=O)[nH]3)cc12 [Example 1-89, N-[(1S)-1-(4-Fluorophenyl)-2-hydroxy-2-methylpropyl]-6-(5-methylquinolin-3-yl)-4-oxo-3-(propan-2-yl)-4,5-dihydropyrazolo[1,5-a]pyrazine-2-carboxamide]",1.03 nM
13,"O=C(NCCc1ccc(F)cc1)c1cc2c(=O)[nH]c(-c3ccc4ccccc4c3)cn2n1 [Example 2-7, N-[2-(4-Fluorophenyl)ethyl]-6-(2-naphthyl)-4-oxo-4,5-dihydropyrazolo[1,5-a]pyrazine-2-carboxamide]",4.7 nM
14,"CC(NC(=O)c1cc2c(=O)[nH]c(-c3ccc4ccccc4c3)cn2n1)c1ccc(C(C)(C)C)cc1 (centres unmarked) [Example 2-40, N-[1-(4-tert.-Butylphenyl)ethyl]-6-(2-naphthyl)-4-oxo-4,5-dihydropyrazolo[1,5-a]pyrazine-2-carboxamide]",3.15 nM
15,"CC(NC(=O)c1cc2c(=O)[nH]c(-c3ccc4ccccc4c3)cn2n1)c1ccccc1 (centres unmarked) [Example 2-1, 6-(2-Naphthyl)-4-oxo-N-(1-phenylethyl)-5H-pyrazolo[1,5-a]pyrazine-2-carboxamide]",2.07 nM
16,"CC(NC(=O)c1nn2cc(-c3ccc4ccccc4c3)[nH]c(=O)c2c1C(F)(F)F)c1ccc(OCC(F)(F)F)cn1 (centres unmarked) [Example 1-30, 6-(2-Naphthyl)-4-oxo-N-[1-[5-(2,2,2-trifluoroethoxy)-2-pyridyl]ethyl]-3-(trifluoromethyl)-5H-pyrazolo[1,5-a]pyrazine-2-carboxamide trifluoroacetic acid salt]",4.05 nM
17,"CC[C@@H](C)NC(=O)c1nn2cc(-c3ccc(C)c(C)c3)[nH]c(=O)c2c1C(C)C [Example 1-140, N-[(2R)-Butan-2-yl]-6-(3,4-dimethylphenyl)-4-oxo-3-(propan-2-yl)-4,5-dihydropyrazolo[1,5-a]-pyrazine-2-carboxamide]",1.95 nM
18,"Cc1cccc2ncc(-c3cn4nc(C(=O)N[C@H]5CCCc6ccccc65)c(C(C)C)c4c(=O)[nH]3)cc12 [Example 4-58, 6-(5-Methylquinolin-3-yl)-4-oxo-3-(propan-2-yl)-N-[(7S)-1,2,3,4-tetrahydronaphthalen-1-yl]-4,5-dihydropyrazolo[1,5-a]pyrazine-2-carboxamide]",4.3 nM
19,"CC[C@@H](NC(=O)c1nn2c(C)c(-c3ccc4ccccc4c3)[nH]c(=O)c2c1C)c1ccccc1 [Example 3-33, 3,7-Dimethyl-6-(naphthalen-2-yl)-4-oxo-N-[(7R)-1-phenylpropyl]-4,5-dihydropyrazolo[1,5-a]pyrazine-2-carboxamide]",2.2 nM
20,"COc1ccc(C2(NC(=O)c3cc4c(=O)[nH]c(-c5ccc(C)c(C)c5)cn4n3)CN(C(C)=O)C2)cc1 [Example 1-156, N-[1-Acetyl-3-(4-methoxyphenyl)azetidin-3-yl]-6-(3,4-dimethylphenyl)-4-oxo-5H-pyrazolo[1,5-a]-pyrazine-2-carboxamide]",3.05 nM

# Continued, values first:
row,IC50,SMILES
1,0.887 nM,COc1ccc(CCNC(=O)c2nn3cc(-c4ccc5ccccc5c4)[nH]c(=O)c3c2C(C)C)cc1OC [6-85]
2,0.87 nM,"Cc1ccc(-c2cn3nc(C(=O)NCCC(O)C(F)(F)F)c(C4CC4)c3c(=O)[nH]2)cc1F (single isomer, unassigned) [6-368]"
3,4 nM,Cc1ccc(-c2cn3nc(C(=O)NCc4ccccc4)cc3c(=O)[nH]2)cc1C [6-22]
4,0.41 nM,Cc1ccc(-c2cn3nc(C(=O)N[C@H](C)C4CC4)c(C4CC4)c3c(=O)[nH]2)cc1Cl [6-283]
5,8.5 nM,"Cc1ccc(-c2cn3nc(C(=O)NC4CCN(CC(F)(F)F)C4)c(C4CC4)c3c(=O)[nH]2)cc1F (single isomer, unassigned) [6-390]"
6,2.7 nM,Cc1cc(-c2cn3nc(C(=O)N[C@@H](C)C(C)C)c(C(F)(F)F)c3c(=O)[nH]2)ccc1Cl [6-215]
7,2.8 nM,Cc1ccc(-c2cn3nc(C(=O)N[C@H](C)c4ccc(F)cc4)cc3c(=O)[nH]2)cc1Cl [6-81]
8,6 nM,Cc1ccc(-c2cn3nc(C(=O)N[C@@H](c4ccc(F)cc4)C(F)(F)CO)cc3c(=O)[nH]2)cc1F [6-645]
9,3.05 nM,"Cc1ccc(-c2cn3nc(C(=O)NCC(N)C(F)(F)F)c(C4CC4)c3c(=O)[nH]2)cc1F (single isomer, unassigned) [6-396]"
10,6.7 nM,"Cc1ccc(-c2cn3nc(C(=O)NC4(C)CCC4)cc3c(=O)[nH]2)cc1C [Example 5-5, 6-(3,4-Dimethylphenyl)-N-(1-methylcyclobutyl)-4-oxo-4,5-dihydropyrazolo[1,5-a]pyrazine-2-carboxamide]"
11,9.35 nM,"Cc1cc(-c2cn3nc(C(=O)NCC(O)C(F)(F)F)c(C4CC4)c3c(=O)[nH]2)ccc1F (single isomer, unassigned) [6-655]"
12,1.7 nM,Cc1ccc(-c2cn3nc(C(=O)N[C@H](C)C4CC4)c(C(F)(F)F)c3c(=O)[nH]2)cc1Cl [6-172]
13,0.82 nM,"Cc1ccc(-c2cn3nc(C(=O)NCC(O)C(F)(F)F)c(C4CC4)c3c(=O)[nH]2)cc1Cl (single isomer, unassigned) [6-260]"
14,0.82 nM,Cc1ccc(-c2cn3nc(C(=O)NC(c4ccc(F)cc4)C(C)(C)O)c(C4CC4)c3c(=O)[nH]2)cc1F (racemic) [6-402]
15,5.6 nM,"Cc1ccc(-c2cn3nc(C(=O)NC(c4ccc(C(F)(F)F)cc4)C(C)(C)O)c(C4CC4)c3c(=O)[nH]2)cc1C (single isomer, unassigned) [6-459]"
16,3.4 nM,Cc1ccc(-c2cn3nc(C(=O)NCCN(C)C4CC4)c(C4CC4)c3c(=O)[nH]2)cc1F [6-384]
17,1.25 nM,Cc1ccc(-c2cn3nc(C(=O)N[C@@H](c4ccc(F)cc4)C(C)(C)O)c(C4CCC4)c3c(=O)[nH]2)cc1F [6-573]
18,3.1 nM,CC(NC(=O)c1cc2c(=O)[nH]c(-c3ccc4ccccc4c3)cn2n1)c1ccc(F)cc1 (centres unmarked) [6-19]

# From patent publication US20220324865A1 (Bayer Aktiengesellschaft, priority 2018, published 2022)
